Patent publication US12048691B2 (SPERO THERAPEUTICS, INC., priority 2020, dated 2024)
Converted amounts (≈) assume the structure as drawn. Where two headings read alike, the source gives them in different places.

Experiments:
[1] = test system: E. coli; test: Susceptibility of E. coli from urinary tract infections, 18 EU countries 2020 (STEWARD); format: cell-based
Method: The study assessed the prevalence of resistance and evaluated the activity of oral tebipenem (TBP) and comparators against EC from urinary tract infections.
Results were interpreted using EUCAST criteria. […] ESBL phenotypes were determined by CLSI criteria and sequenced to identify CTX-M-15 genotype and clonal complex ST131.

[2] = test system: bacteremia secondary to cUTI/AP; test: Efficacy in patients with cUTI or acute pyelonephritis and associated bacteremia; format: in vivo, human
Source text: The objective of this analysis was to evaluate the efficacy of TBP-PI-HBr in the subset of patients with associated bacteremia from a study of patients with either cUTI or acute pyelonephritis.

[3] = test system: Enterobacterales overproducing AmpC; test: Broth microdilution susceptibility of isolates overexpressing AmpC; format: cell-based
Method: Frozen-form broth microdilution panels were manufactured by JMI Laboratories and contained cation-adjusted Mueller-Hinton broth. Quality assurance was performed by sterility checks, colony counts, and testing CLSI recommended quality control reference strains.

[4] = test system: AmpC production in Enterobacterales; test: AmpC induction (nitrocefin hydrolysis after drug exposure); format: cell-based; details: tebipenem/imipenem except for C. koseri and S. marcescens
Method: (§1) AmpC induction was determined as follows. Baseline MIC values were determined by broth microdilution method, as described above, for 9 Gram-negative isolates with basal expression of ampC. These isolates were cultured overnight on blood agar plates. A standardized inoculum made from fresh overnight plate cultures was added to flasks containing 50 mL of Luria-Bertani (LB) broth and incubated by shaking at 37° C. to OD600 of 0.3. […] These cultures were incubated under shaking conditions. A 40 mL aliquot of bacterial cultures was sampled at time 0 and 2 hours after drug exposures. Each sample aliquot was harvested by centrifugation and the supernatant was discarded.
(§2) Protein crude extract preparations were made in 200 μL of BugBusterR (Novagen, Darmstadt, Germany) per manufacturer instructions and cell debris was removed by centrifugation. Protein concentrations were determined in each crude extract by standard methodologies.
(§3) AmpC induction was measured by the intensity of β-lactamase hydrolytic activity against 0.1 mM nitrocefin in 0.1 M phosphate buffer at pH 7.0 using spectrophotometry at 482 nm (Δ absorbance/minute/mg of protein). The drug exposure conditions that caused a >4-fold increase in hydrolysis activity compared to the baseline were subjected to postinduction experiments. Briefly, cells were grown under the same conditions as before and tested for susceptibility by broth microdilution.

[5] = test system: AmpC production in P. aeruginosa; test: as above; format: cell-based
Method: as §1, §2, §3

[6] = test system: Methicillin-susceptible Staphylococcus aureus (MSSA); test: Broth microdilution against Gram-positive clinical isolates; format: cell-based; details: Staphylococcus aureus, 489 isolates
Method: (§4) The purpose of this study was to investigate the in vitro activity of tebipenem and comparator agents, including ertapenem and meropenem, against a recent collection of Gram-positive isolates associated with clinical infections. The susceptibility of 580 Gram-positive organisms were tested, including: Methicillin-susceptible Staphylococcus aureus (MSSA, 489 isolates), Methicillin-susceptible Staphylococcus epidermidis (MSSE, 31), other methicillin-susceptible coagulase-negative staphylococci (MSCONS, 29), and Vancomycin-susceptible Enterococcus faecalis (31). Bacterial species were identified by JMI Laboratories using standard microbiology methods and matrix-assisted laser desorption ionization-time of flight mass spectrometry (Bruker Daltonics, Bremen, Germany). The isolates were collected in 2018 and 2019 as part of the SENTRY surveillance program and selected to be representative of these species with 45.0% from the United States, 44.3% from Europe, 5.3% from the Asia-Pacific region, and 5.3% from Latin America. Isolates are primarily from pneumonia in hospitalized patients (498 isolates; 85.9%), urinary tract infections (42 isolates; 7.2%), and bloodstream infections (38 isolates; 6.6%). Isolates were tested in a central laboratory (JMI Laboratories) for antimicrobial susceptibility using the CLSI M07 (2018) reference broth microdilution method. JMI Laboratories produced frozen-form 96-well panels and used cation-adjusted Mueller-Hinton broth (CA-MHB) as the testing medium. All categorical interpretations used CLSI M100 (2021) and EUCAST v10.0 (2021) breakpoint criteria, where published. Quality control organisms include Escherichia coli ATCC 25922, Escherichia coli ATCC 35218, Enterococcus faecalis ATCC 29212, Pseudomonas aeruginosa ATCC 27853, and Staphylococcus aureus ATCC 29213 were tested concurrently with clinical isolates.

[7] = test system: Methicillin-susceptible Staphylococcus epidermidis (MSSE); test: as above; format: cell-based; details: Staphylococcus epidermidis, 31 isolates
Method: as §4

[8] = test system: Vancomycin-susceptible Enterococcus faecalis; test: as above; format: cell-based; details: Enterococcus faecalis; E. faecalis, 31 isolates
Method: as §4

[9] = test system: E. coli; test: Broth microdilution against US UTI pathogens 2019-2020; format: cell-based; details: E. coli (2,339); cefuroxime: oral breakpoint
Summary of the method: (§5)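 Urinary Enterobacterales isolates (3,576 total) collected in 2019-2020 from US medical centers across all 9 Census Regions; susceptibility tested centrally by reference broth microdilution. MICs interpreted per CLSI criteria.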

[10] = test system: Enterobacterales (ENT); test: as above; format: cell-based
Summary of the method: as §5

[11] = test system: K. pneumoniae; test: as above; format: cell-based; details: K. pneumoniae (511)
Summary of the method: as §5

[12] = test system: P. mirabilis; test: as above; format: cell-based; details: P. mirabilis (235), cefuroxime: oral breakpoint
Summary of the method: as §5

`C[C@@H](O)[C@H]1C(=O)N2C(C(=O)O)=C(S[C@@H]3CN[C@H](C(=O)Nc4cccc(C(=O)O)c4)C3)[C@H](C)[C@H]12` [Ertapenem, ertapenem] was tested, and the MIC90 ([1]; Escherichia coli, all E. coli (764) from UTIs) was 0.03 µg/mL (≈ 0.0631 µM), the Susceptibility rate ([1]; all E. coli, EUCAST criteria) was 99.9% and the Clinical cure rate ([2]; EOT) was 100%. The Clinical cure rate ([2]; TOC) was 94.3%, the Overall response rate ([2]; end-of-treatment (EOT)) was 96.2% and the Clinical cure rate ([2]; late-follow-up (LFU) visit) was “approximately 89%”. For the same molecule, the Overall response rate ([2]; test-of-cure (TOC)) was 66.0%, the MIC50 [3] was 0.12 µg/mL (≈ 0.252 µM) and the MIC90 [3] was 2 µg/mL (≈ 4.21 µM). For the same molecule, the “CLSI %1” value ([3]; Enterobacterales (36)) was 8.3%, the “CLSI % R” value ([3]; Enterobacterales (36)) was 11.1% and the “CLSI % S” value ([3]; Enterobacterales (36)) was 80.6%. The MIC50 ([3]; Enterobacterales (36)) was 0.12 μ/ml, the MIC90 ([3]; Enterobacterales (36)) was 2 μ/ml and the “effect of exposure on production of AmpC” value [4] was “did not seem to affect production of AmpC”. The “effect of exposure on production of AmpC” value [5] was “not observed”, the MIC90 [6] was 0.25 µg/mL (≈ 0.526 µM) and the MIC90 [7] was 0.5 µg/mL (≈ 1.05 µM). The MIC90 [8] was > 8 µg/mL, the “% susceptible; CLSI” value [9] was “(99.6) %” and the MIC50 [10] was ≤ 8 µg/mL. The MIC90 ([10]; All (3,567)) was 30 µg/mL (≈ 63.1 µM), the “% susceptible; CLSI” value ([10]; All (3,567), cefuroxime: oral breakpoint) was “(98.5) %” and the MIC90 ([10]; against ENT, EC, and KPN) was 0.03 µg/mL (≈ 0.0631 µM). The “% susceptible; CLSI” value ([11]; cefuroxime: oral breakpoint) was “(96.3) %”, the MIC50 ([11]; Klebsiella pneumoniae, read-out: MIC50) was ≤ 8 µg/mL and the “% susceptible; CLSI” value [12] was “(100.0) %”. The “% susceptible; CLSI” value ([12]; listed as ERT) was 100.0%.
